Consider 22 molecules from article PMC11279807, “Modulation of the Antimelanoma Activity Imparted to Artemisinin Hybrids by the Monoterpene Counterpart” (Molecules, 2024).

Type in all cases: cell-based, human
For one experiment, the system named is WM266. The experiment in a line: MTT cell viability assay on metastatic melanoma cell line WM266. The note with it: for IC50: metastatic melanoma WM266, MTT, 24 h treatment, triplicates, read-out: IC50 (µM ± SD) WM266; for TSI WM266: tumor selectivity index = IC50 on C3PV / IC50 on WM266. The procedure:
(§1) The primary human healthy fibroblast C3PV cell line was grown in a culture medium containing 50% Dulbecco Modified Medium (DMEM) and 50% Ham’s F10 supplemented with 10% Fetal Bovine Serum (FBS). […] To all growing media were added 1% Pen/Strep and 1% Glutamine.
(§2) To study the effect of artemisinin derivatives on cell viability, MTT assay was performed. Briefly, C3PV, WM115, and WM266 cell lines were seeded in 96-well plates (3000 cells/well in 100 μL of medium) 24 h before treatment and incubated overnight to allow for cell adherence. Afterward, the medium was replaced with a fresh one containing the appropriate dose of newly synthesized compounds (doses ranging from 0.01 to 1 μM were used for 24 h). The analyses of cell viability were performed at the end of the treatment. Triplicates were made in all experiments. After 24 h of treatment with newly synthesized compounds, the culture medium was replaced with a solution containing 0.5 mg/mL of MTT. After 3 h of incubation in an incubator, the medium was removed, and a lysis solution (10% SDS, 0.6% acetic acid in DMSO) was added to dissolve the formazan crystals. Optical density measurements were performed with a microplate reader EPOCH/2 (Biotek) with 630 nm (background) and a 570 nm filters.
(§3) The IC50 values were determined via non-linear regression, using the GraphPad Prism software package version 8 (GraphPad Software, San Diego, CA, USA). Results were expressed as means of IC50 values ± SD. The TSI values were calculated using the following formula: […]
Background: Tetrazolium assays rely on reduction of a dye to a coloured formazan, in cell work by metabolically active cells.

For a further experiment, the system named is C3PV. The experiment in a line: MTT cell viability assay on normal fibroblasts C3PV. The note with it: 24 h treatment, triplicates, read-out: IC50 (µM ± SD) C3PV. The method, then: as §1
as §2, with “Afterward, the medium was replaced with a fresh one containing the appropriate dose of newly synthesized compounds (doses ranging from 0.01 to 1 μM were used for 24 h).” left out
as §3

A further experiment concerns WM115. Briefly: MTT cell viability assay on primary melanoma cell line WM115. The note with it: for IC50: primary melanoma WM115, MTT, 24 h treatment, triplicates, read-out: IC50 (µM ± SD) WM115; for TSI WM115: tumor selectivity index = IC50 on C3PV / IC50 on WM115. The method, then:
as §1, §2, §3

The term IC50 denotes the concentration that gives 50% inhibition.

Read-outs that look alike come from different tables or passages of the source.

On to `CC(C)=CCCC(C)CCOC(=O)CCC(=O)OC1OC2OC3(C)CCC4C(C)CCC(C1C)C24OO3` (mixture of isomers) [Hybrid 10c], for which the IC50 was 0.6 ± 0.02 µM in the experiment on WM266 (Homo sapiens, WM266, 24 h); 4.4 ± 2.9 µM in the experiment on C3PV (Homo sapiens, C3PV, 24 h); 1.3 ± 0.9 µM in the experiment with WM115 (Homo sapiens, WM-115, 24 h). In the experiment on WM266, the “TSI WM266” value is reported as 7.3. The “TSI WM115” value in the experiment on WM115 stood at 3.4.
For the molecule `CC(C)=CCCC(C)CCO` (racemic) [(±)-citronellol (±)-6, (±)-citronellol, reference compound], the IC50 with WM266 (Homo sapiens, WM266, 24 h) was determined as 0.3 ± 0.23 µM; with C3PV (Homo sapiens, C3PV, 24 h), 3 ± 1.2 µM; with WM115 (Homo sapiens, WM-115, 24 h), 2.6 ± 0.05 µM. For the same molecule, the “TSI WM266” value in the experiment on WM266 was found to be 10.0; in the experiment with WM266 (listed as citronellol (±)-6) it was 10. The “TSI WM115” value in the experiment with WM115 was determined as 1.2.
Regarding `CC(C)=CCC[C@@H](C)CCO` [(+)-citronellol (+)-6, (+)-citronellol, reference compound], the IC50 in the experiment on WM266 (Homo sapiens, WM266, 24 h) is 0.6 ± 0.02 µM; in the experiment with C3PV (Homo sapiens, C3PV, 24 h) it was 1.9 ± 0.8 µM; in the experiment with WM115 (Homo sapiens, WM-115, 24 h) it was 1.5 ± 0.07 µM. Besides, the “TSI WM266” value in the experiment on WM266 was 3.2. In addition, the “TSI WM115” value in the experiment on WM115 came out at 1.3.
The like results for `CC(C)=CCC[C@H](C)CCO` [(-)-citronellol (-)-6, (-)-citronellol, reference compound] were, in that order, 0.5 ± 0.3 µM, 1 ± 0.9 µM, 0.9 ± 0.03 µM, 2.0 and 1.1.
The like results for `C[C@H]1[C@H](OC(=O)CCC(=O)O)O[C@@H]2O[C@@]3(C)CC[C@H]4[C@H](C)CC[C@@H]1[C@@]24OO3` [ARTA 3, artesunic acid, reference compound] were, in that order, 1.3 ± 0.2 µM, 1.7 ± 0.44 µM, 1.5 ± 0.01 µM, 1.3 and 1.1.
The like results for `C[C@H]1[C@@H](O)O[C@@H]2O[C@@]3(C)CC[C@H]4[C@H](C)CC[C@@H]1[C@@]24OO3` [DHA 2, dihydroartemisinin, reference compound] were, in that order, 1.6 ± 0.03 µM, 0.7 ± 0.19 µM, 1.6 ± 0.4 µM, 0.4 and 0.4.
For the molecule `C=CCc1ccc(O)c(OC)c1` [Eugenol 4, eugenol, reference compound], the IC50 worked out at 0.9 ± 0.05 µM with WM266 (Homo sapiens); 1 ± 0.1 µM with C3PV (Homo sapiens); 3 ± 0.02 µM in the experiment with WM115 (Homo sapiens, WM-115). Further, in the experiment with WM266, the “TSI WM266” value is reported as 1.1. Also, the “TSI WM115” value with WM115 was 0.3.
Regarding `CC(C)=CCC/C(C)=C/CO` [Geraniol 8, geraniol, reference compound], the IC50 was 0.5 ± 0.09 µM in the experiment with WM266 (Homo sapiens, WM266, 24 h); 0.5 ± 0.02 µM in the experiment with C3PV (Homo sapiens, C3PV, 24 h); 0.5 ± 0.01 µM with WM115 (Homo sapiens, WM-115, 24 h). For the same molecule, in the experiment on WM266, the “TSI WM266” value is given as 1.0. Also, in the experiment on WM115, the “TSI WM115” value is 1.0.
For `C=CCc1ccc(O[C@H]2O[C@@H]3O[C@@]4(C)CC[C@H]5[C@H](C)CC[C@@H]([C@H]2C)[C@@]35OO4)c(OC)c1` [Hybrid 9a], the IC50 with WM266 (Homo sapiens, WM266, 24 h) is 1 ± 0.09 µM; with C3PV (Homo sapiens, C3PV, 24 h), 0.7 ± 0.04 µM; with WM115 (Homo sapiens, WM-115, 24 h), 0.1 ± 0.01 µM. For the same molecule, the “TSI WM266” value in the experiment on WM266 is 0.7. Also, the “TSI WM115” value in the experiment with WM115 is recorded as 7.0.
The like results for `C=C(C)C1CC=C(CO[C@H]2O[C@@H]3O[C@@]4(C)CC[C@H]5[C@H](C)CC[C@@H]([C@H]2C)[C@@]35OO4)CC1` (some centres unmarked) [Hybrid 9b] were, in that order, 0.2 ± 0.01 µM, 0.3 ± 0.1 µM, 0.2 ± 0.01 µM, 1.5 and 1.5.
The like results for `CC(C)=CCC[C@@H](C)CCO[C@H]1O[C@@H]2O[C@@]3(C)CC[C@H]4[C@H](C)CC[C@@H]([C@H]1C)[C@@]24OO3` [Hybrid 9d] were, in that order, 2.7 ± 0.2 µM, 51 ± 0.3 µM, 2.9 ± 0.6 µM, 18.9 and 17.6.
With `CC(C)=CCC[C@H](C)CCO[C@H]1O[C@@H]2O[C@@]3(C)CC[C@H]4[C@H](C)CC[C@@H]([C@H]1C)[C@@]24OO3` [Hybrid 9e], the IC50 came to 2.2 ± 0.6 µM with WM266 (Homo sapiens, WM266, 24 h); 50 ± 0.03 µM with C3PV (Homo sapiens, C3PV, 24 h); 2.4 ± 0.1 µM with WM115 (Homo sapiens, WM-115, 24 h). The “TSI WM266” value in the experiment on WM266 was 22.7. In addition, in the experiment with WM115, the “TSI WM115” value came to 20.8.
The like results for `CC(C)=CCC/C(C)=C/CO[C@H]1O[C@@H]2O[C@@]3(C)CC[C@H]4[C@H](C)CC[C@@H]([C@H]1C)[C@@]24OO3` [Hybrid 9g] were, in that order, 13.4 ± 1.5 µM, 6.2 ± 0.7 µM, 14.5 ± 1.1 µM, 0.5 and 0.4.
The like results for `C=CCc1ccc(OC(=O)CCC(=O)OC2OC3OC4(C)CCC5C(C)CCC(C2C)C35OO4)c(OC)c1` (centres unmarked) [Hybrid 10a] were, in that order, 0.6 ± 0.1 µM, 1.6 ± 0.3 µM, 1.5 ± 0.8 µM, 2.7 and 1.1.
The like results for `CC(C)=CCCC(C)CCOC(=O)CCC(=O)OC1OC2OC3(C)CCC4C(C)CCC(C1C)C24OO3` (centres unmarked) [Hybrid 10d] were, in that order, 1.3 ± 0.8 µM, 4.8 ± 0.9 µM, 1.7 ± 0.5 µM, 3.7 and 2.8.
Regarding `CC(C)=CCCC(C)CCOC(=O)CCC(=O)OC1OC2OC3(C)CCC4C(C)CCC(C1C)C24OO3` (centres unmarked) [Hybrid 10e], in the experiment with WM266, the IC50 worked out at 1.6 ± 0.9 µM and the “TSI WM266” value is reported as 3.2. The IC50 in the experiment on C3PV was 5.1 ± 1.7 µM. In the experiment on WM115, the IC50 turned out to be 1.9 ± 0.6 µM and the “TSI WM115” value worked out at 2.7.
For the molecule `CC(C)=CCCC(C)=CCOC(=O)CCC(=O)OC1OC2OC3(C)CCC4C(C)CCC(C1C)C24OO3` (centres unmarked) [Hybrid 10g], in the experiment on WM266, the IC50 came to 1 ± 0.1 µM and the “TSI WM266” value came to 2.4. Moreover, the IC50 with C3PV amounted to 2.4 ± 0.9 µM. In addition, in the experiment with WM115, the IC50 amounted to 1.5 ± 0.7 µM and the “TSI WM115” value is given as 1.6.
Turning to `CC(C)=CCCC(C)CCOC1OC2OC3(C)CCC4C(C)CCC(C1C)C24O3` (centres unmarked) [Hybrid 11c], the IC50 with WM266 (Homo sapiens, WM266, 24 h) is 35.1 ± 2.5 µM.
Regarding `CC(C)=CCCC(C)=CCOC1OC2OC3(C)CCC4C(C)CCC(C1C)C24O3` (centres unmarked) [Hybrid 11f], the IC50 with WM266 (Homo sapiens, WM266, 24 h) was 76.3 ± 9.5 µM. Also, the “fold lower antimelanoma effect compared to the corresponding compounds 9c and f” value in the experiment on WM266 (WM266, 2-deoxy analogue vs. corresponding DHA hybrid) is 40 fold.
Regarding `CC(C)=CCC/C(C)=C\CO` [Nerol 7, nerol, reference compound], the IC50 worked out at 0.5 ± 0.01 µM in the experiment with WM266 (Homo sapiens, WM266, 24 h); 3.8 ± 1.5 µM in the experiment on C3PV (Homo sapiens, C3PV, 24 h); 1.4 ± 0.03 µM with WM115 (Homo sapiens, WM-115, 24 h). The “TSI WM266” value in the experiment with WM266 is recorded as 7.6. Moreover, the “TSI WM115” value in the experiment with WM115 came out at 2.7.
The like results for `CC(=O)O[C@H]1C(=O)[C@@]2(C)[C@H]([C@H](OC(=O)c3ccccc3)[C@]3(O)C[C@H](OC(=O)[C@H](O)[C@@H](NC(=O)c4ccccc4)c4ccccc4)C(C)=C1C3(C)C)[C@]1(OC(C)=O)CO[C@@H]1C[C@@H]2O` [PTX, paclitaxel, reference compound] were, in that order, 0.9 ± 0.04 µM, 78.9 ± 0.8 µM, 2.3 ± 0.7 µM, 87.7 and 34.3.
Consider `C=C(C)[C@@H]1CC=C(CO)CC1` [Perillyl alcohol 5, perillyl alcohol, reference compound], for which the IC50 in the experiment with WM266 (Homo sapiens, WM266, 24 h) amounted to 0.6 ± 0.04 µM; with C3PV (Homo sapiens, C3PV, 24 h) it was 52.5 ± 9.5 µM; with WM115 (Homo sapiens, WM-115, 24 h), 1.2 ± 0.02 µM. In addition, in the experiment with WM266, the “TSI WM266” value came out at 87.5. Further, the “TSI WM115” value in the experiment with WM115 came to 43.8.
